The values below come from patent publication US8399417B2, “Food” (Ajinomoto Co., Inc., priority 2007, dated 2013).

Starred links: 1 amine or outer side, 2 acyl side, 3 side chain; linkers in the order of their positions; H or OH if unused. Non-standard residues stand in square brackets, D forms with d. No end group written: not given here. γGlu = O=C(O)[C@H](CCC(=O)[*:2])N[*:1]; Abu = CC[C@H](N)C(=O)O

One assay deals with T1, human calcium receptor (Homo sapiens, UniProt P41180).
T1 construct: expressed in transfected cells; host or cells: Xenopus laevis oocytes injected with cRNA; the gene was PCR-cloned from human kidney cDNA (Clontech) into pBR322
T1 sequence (P41180 20-1078): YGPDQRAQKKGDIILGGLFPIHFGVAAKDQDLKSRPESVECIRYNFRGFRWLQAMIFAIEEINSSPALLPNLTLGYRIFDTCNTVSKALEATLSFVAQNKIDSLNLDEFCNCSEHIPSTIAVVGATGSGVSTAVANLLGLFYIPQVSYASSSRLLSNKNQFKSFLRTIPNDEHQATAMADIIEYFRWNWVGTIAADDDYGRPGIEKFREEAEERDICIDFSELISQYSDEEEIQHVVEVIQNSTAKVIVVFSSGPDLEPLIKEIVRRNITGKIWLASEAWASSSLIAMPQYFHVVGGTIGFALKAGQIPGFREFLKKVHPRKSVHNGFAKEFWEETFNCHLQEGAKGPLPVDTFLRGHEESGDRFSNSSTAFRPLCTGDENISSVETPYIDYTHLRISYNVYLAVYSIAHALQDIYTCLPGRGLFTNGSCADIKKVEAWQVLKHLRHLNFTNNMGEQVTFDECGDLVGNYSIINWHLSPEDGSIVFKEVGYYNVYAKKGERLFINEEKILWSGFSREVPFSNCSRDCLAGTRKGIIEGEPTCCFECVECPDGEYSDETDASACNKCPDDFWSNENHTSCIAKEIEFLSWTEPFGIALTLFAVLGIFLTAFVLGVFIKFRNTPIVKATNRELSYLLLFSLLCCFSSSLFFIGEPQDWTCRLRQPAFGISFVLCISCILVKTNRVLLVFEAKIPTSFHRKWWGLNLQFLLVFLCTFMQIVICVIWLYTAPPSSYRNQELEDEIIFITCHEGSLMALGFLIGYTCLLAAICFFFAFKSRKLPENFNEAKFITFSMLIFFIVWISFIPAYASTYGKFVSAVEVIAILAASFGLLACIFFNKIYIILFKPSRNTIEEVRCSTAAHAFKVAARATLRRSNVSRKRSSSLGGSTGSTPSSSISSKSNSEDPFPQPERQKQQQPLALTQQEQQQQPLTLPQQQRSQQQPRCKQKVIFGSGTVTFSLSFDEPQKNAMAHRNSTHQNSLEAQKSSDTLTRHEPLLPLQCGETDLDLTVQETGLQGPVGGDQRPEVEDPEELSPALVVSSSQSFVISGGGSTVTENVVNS
Put plainly: Calcium receptor-activating effect: Ca ion concentration-dependent Cl ionic current in Xenopus laevis oocyte expression system. The class given is cell-based. The settings on record: for Activity (lowest concentration at which current was detected): peptide added at 1,000 to 0.1 μM to potential-clamped oocytes, Table 1. On the procedure: For evaluation of the calcium receptor-activating effect, a Ca ion concentration-dependent Cl ionic current measuring method using a Xenopus laevis oocyte expression system was used. If each activator is added to Xenopus laevis oocytes expressing the calcium receptor, intracellular Ca ions increase. Then, the Ca ion concentration-dependent Cl channel opens, and the intracellular current value changes as an ionic current. By measuring the change in the intracellular current value, whether the calcium receptor-activating effect is present or not can be determined.
Specifically, the abdomen of Xenopus laevis was opened, and an egg batch was taken out and then treated with a 1% collagenase solution at 20° C. for 2 hours to obtain individual oocytes. Into the oocytes, 50 nl of 1 μg/μl receptor cRNA or 50 nl of sterilized water per oocyte were injected by using a micro glass capillary, and the oocytes were cultured at 18° C. for 2 to 3 days. For the culture, a solution obtained by adding 2 mM pyruvic acid, 10 U/ml penicillin, and 10 μg/ml streptomycin to the solution in Reference Example 2 was used. After the culture, a test solution was added to the oocytes injected with cRNA or sterilized water. Electrophysiological measurement was performed by using an amplifier Geneclamp 500 (manufactured by Axon) and recording software AxoScope 9.0 (manufactured by Axon). The oocytes were membrane potential-clamped at −70 mV by the double electrode potential clamp method, and the intracellular current via the Ca ion concentration-dependent Cl ion was measured. The maximum value of the intracellular current was defined as the response current value.
The calcium receptor-activating effect of L-amino acids was evaluated by using the method described in Reference Example 6. That is, oocytes injected with cRNA of the calcium receptor or sterilized water were prepared, and membrane potential-clamped at −70 mV by the double electrode potential clamp method. To the potential-clamped oocytes, alanine (10 mM), arginine (10 mM), asparagine (10 mM), aspartic acid (10 mM), cysteine (10 mM), glutamine (10 mM), glutamic acid (10 mM), glycine (10 mM), histidine (10 mM), isoleucine (10 mM), leucine (10 mM), lysine (10 mM), methionine (10 mM), phenylalanine (10 mM), proline (10 mM), serine (10 mM), threonine (10 mM), tryptophan (10 mM), tyrosine (10 mM), valine (10 mM), ornithine (10 mM), taurine (10 mM), or hydroxyproline (10 mM) was added, and Ca ion concentration-dependent Cl response current was measured. […] 25, 2000, 97(9): 4814-9.
The calcium receptor-activating effect of D-cysteine was evaluated by using the method described in Reference Example 6. That is, oocytes injected with cRNA of the calcium receptor or sterilized water were prepared, and membrane potential-clamped at −70 mV by the double electrode potential clamp method. To the potential-clamped oocytes, D-cysteine (10 mM), L-cysteine (10 mM), D-tryptophan (10 mM), or L-tryptophan (10 mM) was added, and Ca ion concentration-dependent Cl response current was measured.
The calcium receptor-activating effect of a peptide was evaluated by using the method described in Reference Example 6. That is, oocytes injected with cRNA of the calcium receptor or sterilized water were prepared, and membrane potential-clamped at −70 mV by the double electrode potential clamp method.
The calcium receptor-activating effects of peptides were evaluated in the same manner as that of Reference Example 10. Each of the peptides shown in Table 1 was added to potential-clamped oocytes at 1,000 μM, 300 μM, 100 μM, 30 μM, 10 μM, 3 μM, 1 μM, 0.3 μM, and 0.1 μM, and Ca ion concentration-dependent Cl response current was measured.

Assay [1] is described as follows: Kokumi-imparting activity intensity, quantitative sensory evaluation test. More on the design: key: *: Unmeasurable: kokumi-imparting activity is too strong to measure by sensory evaluation. In kind it is in vivo, human.
Method: The quantitative sensory evaluation test was performed as follows. […] It should be noted that a sample, which became acidic after the sample had been dissolved, was adjusted with NaOH to pH 6.8 to 7.2 before use. […] The test was performed with n=3 based on the following sensory evaluation scores: control (0 point) and glutathione addition (3 points).
The quantitative sensory evaluation test was performed as follows. […] It should be noted that a sample, which became acidic after the sample had been dissolved, was adjusted with NaOH to pH 6.8 to 7.2 before use. The test was performed with n=5 based on the following sensory evaluation scores: control (0 point) and glutathione addition (3 points).
The quantitative sensory evaluation test was performed as follows. […] It should be noted that a sample, which became acidic after the sample had been dissolved, was adjusted with NaOH to pH 6.8 to 7.2 before use. The test was performed with n=12 based on the following sensory evaluation scores: control (0 point) and glutathione addition (3 points).
Assay [2] is described as follows: Fat-like richness and smoothness imparted to low-calorie mayonnaise, quantitative sensory evaluation test. In kind it is in vivo, human. The settings on record: for Fat-like richness / Smoothness: control 0, strong 3, very strong 5 points. On the procedure: In the same manner as that in Example 1 except that commercially-available low-calorie mayonnaise (having a fat content reduced by 50% compared with a normal product) was used instead of low-fat milk, each peptide was measured for its fat-like richness-imparting intensity.
In the same manner as that in Example 2, each sample was measured for its intensity of imparting fat-like richness.

Where [3] appears, read: 0.01 g/dl, n=5, control 0, glutathione 3 points, Table 4.
Setting [4] is: 0.01 g/dl, n=12, control 0, glutathione 3 points, Table 5.
Setting [5] is: 0.0001 g/dl in low-calorie mayonnaise, Table 7.
The mark [6] stands for this setting: 0.001 g/dl in low-calorie mayonnaise, Table 7.
The mark [7] stands for this setting: 0.001 g/dl in low-calorie mayonnaise, Table 9.
Where [8] appears, read: 0.1 g/dl, n=5, control 0, glutathione 3 points, Table 4.
[9] abbreviates: 0.1 g/dl, n=12, control 0, glutathione 3 points, Table 5.
[10] abbreviates: 0.01 g/dl in low-calorie mayonnaise (fat reduced by 50%), Table 7.
Where [11] appears, read: 0.01 g/dl in low-calorie mayonnaise, Table 7.

With [γGlu]-Val-Gly, the “Activity (lowest concentration at which current was detected)” value at human calcium receptor amounted to 0.1 µM. For the same compound, the “Kokumi intensity, Aftertaste” value is 3.0 points in assay [1] (setting [3]); 3.0 points in assay [1] (setting [4]); “*” in assay [1] (0.1 g/dl, n=5, Table 4). In addition, the “Kokumi intensity, Initial and middle taste” value in assay [1] (setting [3]) was 3.0 points; in assay [1] (setting [4]) it was 3.0 points; in assay [1] (0.1 g/dl, n=5, Table 4), “*”. The Taste profile entry in assay [1] (0.1 g/dl, n=5, Table 4) is given as “*”; in assay [2] (setting [5]), “Taste is enhanced in middle”; in assay [2] (setting [6]), “Taste is enhanced in middle”; in assay [2] (setting [7]), “Taste is enhanced in middle”. Moreover, the Fat-like richness in assay [2] (setting [5]) was determined as 3.0 points; in assay [2] (setting [6]), 4.8 points; in assay [2] (setting [7]), 4.8 points. For the same compound, the figures for the Smoothness in assay [2] (setting [5]), in assay [2] (setting [6]) and in assay [2] (setting [7]) were 3.0 points, 4.5 points and 4.5 points, respectively.
For `N[C@@H](CCC(=O)N[C@@H](CS)C(=O)NCC(=O)O)C(=O)O` [γ-Glu-Cys-Gly, reference compound], the “calcium receptor-activating effect (Cl response current)” value on human calcium receptor (peptide 50 μM, FIG. 4) is “definite calcium receptor-activating effect”. In addition, the Taste profile result is “Thickness, growth, and continuity” in assay [1] (0.1 g/dl, n=3, Table 3); “Fat-like richness with sweet” in assay [2] (setting [11]). In addition, the “Kokumi intensity, Aftertaste” value was 3.0 points in assay [1] (0.1 g/dl, n=3, control 0, glutathione 3 points, Table 3); 3.0 points in assay [1] (setting [8]); 3.0 points in assay [1] (setting [9]). For the same compound, the “Kokumi intensity, Initial and middle taste” value in assay [1] (setting [8]) came to 3.0 points; in assay [1] (setting [9]), 3.0 points; in assay [1] (0.1 g/dl, sodium glutamate, inosine monophosphate, sodium chloride solution, n=3, control 0, glutathione 3 points, Table 3) it was 3.0 points. In addition, the Fat-like richness in assay [2] (setting [10]) is recorded as 3.5 points. In assay [2] (setting [11]), this compound registered a Smoothness of 3.0 points.
Take [γGlu]-[Abu]-Gly: the “Activity (lowest concentration at which current was detected)” value at human calcium receptor stood at 3 µM. Also, in assay [1] (setting [4]), the “Kokumi intensity, Aftertaste” value stood at 2.0 points; the “Kokumi intensity, Initial and middle taste” value is reported as 3.0 points. Further, in assay [2] (setting [6]), the Taste profile result was “Fat-like richness with sweet”, the Fat-like richness is listed as 3.2 points and the Smoothness is given as 3.0 points. In assay [2] (setting [10]), the Fat-like richness is 4.7 points. Further, in assay [2] (setting [11]), the Taste profile result is “Fat-like richness with sweet” and the Smoothness is 4.3 points.
